Results published in ChEMBL document CHEMBL4342452, “Water-Soluble Glutamic Acid Derivatives Produced in Culture by Penicillium solitum IS1-A from King George Island, Maritime Antarctica” (J Nat Prod, 2020).
Active and inactive are the calls of the source. The calls are words filed in the database; no cut-off is given here.

Experiments:
MCF-10A = experiment: Cytotoxicity against human MCF10A cells after 24 hrs by tetrazolium dye based assay; assay type: cell-based
HeLa = experiment: Cytotoxicity against human HeLa cells after 24 hrs by tetrazolium dye based assay; assay type: functional, cell-based
Pseudomonas aeruginosa = experiment: Antibacterial activity against Pseudomonas aeruginosa ATCC 27853 incubated for 18 hrs by microdilution method; assay type: functional, organism-based
Staphylococcus aureus = experiment: Antibacterial activity against Staphylococcus aureus ATCC 29213 incubated for 18 hrs by microdilution method; assay type: functional, organism-based
A549 = experiment: Cytotoxicity against human A549 cells after 24 hrs by tetrazolium dye based assay; assay type: functional, cell-based
Klebsiella pneumoniae = experiment: Antibacterial activity against Klebsiella pneumoniae ATCC 700603 incubated for 18 hrs by microdilution method; assay type: functional, organism-based
MCF7 = experiment: Cytotoxicity against human MCF7 cells after 24 hrs by tetrazolium dye based assay; assay type: functional, cell-based
Homo sapiens = species: Homo sapiens; experiment: Cytotoxicity against human ACP01 cells after 24 hrs by tetrazolium dye based assay; assay type: functional, cell-based
Enterococcus faecalis = experiment: Antibacterial activity against Enterococcus faecalis ATCC 29212 incubated for 18 hrs by microdilution method; assay type: functional, organism-based

| SMILES | Activity (MCF-10A) | Activity (HeLa) | Activity (Pseudomonas aeruginosa) | Activity (Staphylococcus aureus) | Activity (A549) | Activity (Klebsiella pneumoniae) | Activity (MCF7) | Activity (Homo sapiens) | Activity (Enterococcus faecalis) |
| --- | --- | --- | --- | --- | --- | --- | --- | --- | --- |
| C=CC(C)(C)[C@@]1(CCNC(=O)CC[C@H](N)C(=O)O)C(=O)Nc2ccccc21 | Non-Toxic | inactive | inactive | inactive | inactive | inactive | inactive | inactive | inactive |
| C=CC(C)(C)c1[nH]c2ccccc2c1CCNC(=O)CC[C@H](O)C(=O)O | Non-Toxic | inactive | inactive | inactive | inactive | inactive | inactive | inactive | inactive |
| C=CC(C)(C)c1[nH]c2ccccc2c(=O)c1CNC(=O)CC[C@H](N)C(=O)O | Non-Toxic | inactive | inactive | inactive | inactive | inactive | inactive | inactive | inactive |
| C=CC(C)(C)[C@H]1Nc2ccccc2C(=O)[C@@H]1CNC(=O)CC[C@H](N)C(=O)O | Non-Toxic | inactive | inactive | inactive | inactive | inactive | inactive | inactive | inactive |
| C=CC(C)(C)C(=O)Nc1ccccc1C(=O)CCNC(=O)CC[C@H](N)C(=O)O | Non-Toxic | inactive | inactive | inactive | inactive | inactive | inactive | inactive | inactive |
| C=CC(C)(C)c1[nH]c2ccccc2c1CCNC(=O)CC[C@H](N)C(=O)O | Non-Toxic | inactive | inactive | inactive | inactive | inactive | inactive | inactive | inactive |
